This note sets out measurements from the supplement of paper PMC10307832.

Common to all, as to experiment: relative viability (nuclei count vs DMSO), 5 days (fraction); higher = more cells survive
Compound in the assay “Bexarotene + Tozasertib”: C=C(c1ccc(C(=O)O)cc1)c1cc2c(cc1C)C(C)(C)CCC2(C)C [Bexarotene] + Cc1cc(Nc2cc(N3CCN(C)CC3)nc(Sc3ccc(NC(=O)C4CC4)cc3)n2)n[nH]1 [Tozasertib] (partner 0.1 µM)
The gist of the method: (§1)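 Dosing by pin tool came one day after lung cancer cell lines were seeded in 1536-well plates, using either one drug or a fixed anchor-drug dose plus five library-drug doses (not always all listed) in √10 steps. After 5 days, nuclei were counted on 4× images. Relative viability is treated-well nuclei count divided by vehicle-well nuclei count, and values are medians of duplicate plates.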

Compound in the assay “Bexarotene + OSI-027”: C=C(c1ccc(C(=O)O)cc1)c1cc2c(cc1C)C(C)(C)CCC2(C)C [Bexarotene] + COc1cccc2cc(-c3nc([C@H]4CC[C@H](C(=O)O)CC4)n4ncnc(N)c34)[nH]c12 [OSI-027] (partner 0.5 µM)
The gist of the method:
as §1

Compound in the assay “Bexarotene + Linsitinib”: C=C(c1ccc(C(=O)O)cc1)c1cc2c(cc1C)C(C)(C)CCC2(C)C [Bexarotene] + C[C@]1(O)C[C@@H](c2nc(-c3ccc4ccc(-c5ccccc5)nc4c3)c3c(N)nccn32)C1 [Linsitinib] (partner 1 µM)
The procedure, abridged:
as §1

Compound in the assay “Bexarotene + Crizotinib”: C=C(c1ccc(C(=O)O)cc1)c1cc2c(cc1C)C(C)(C)CCC2(C)C [Bexarotene] + C[C@@H](Oc1cc(-c2cnn(C3CCNCC3)c2)cnc1N)c1c(Cl)ccc(F)c1Cl [Crizotinib] (partner 1 µM)
The gist of the method:
as §1

NCI-H650: the relative viability turned out to be 0.747 with Bexarotene + Tozasertib (first compound 0.08 µM); 0.724 with Bexarotene + Tozasertib (first compound 0.253 µM); 0.721 in the assay with Bexarotene + Tozasertib (first compound 0.8 µM); 0.789 in the assay with Bexarotene + Tozasertib (first compound 2.53 µM); 0.687 in the assay with Bexarotene + Tozasertib (first compound 8 µM); 0.516 with Bexarotene + OSI-027 (first compound 0.08 µM). The relative viability with Bexarotene + OSI-027 (first compound 0.253 µM) is 0.521; in the assay with Bexarotene + OSI-027 (first compound 0.8 µM), 0.523; with Bexarotene + OSI-027 (first compound 2.53 µM) it was 0.485; in the assay with Bexarotene + OSI-027 (first compound 8 µM), 0.494; with Bexarotene + Linsitinib (first compound 0.08 µM) it was 0.869; in the assay with Bexarotene + Linsitinib (first compound 0.253 µM), 0.926. The relative viability in the assay with Bexarotene + Linsitinib (first compound 0.8 µM) came out at 0.793; in the assay with Bexarotene + Linsitinib (first compound 2.53 µM), 0.645; in the assay with Bexarotene + Linsitinib (first compound 8 µM) it was 0.83; with Bexarotene + Crizotinib (first compound 0.08 µM) it was 0.749; in the assay with Bexarotene + Crizotinib (first compound 0.253 µM) it was 0.613; with Bexarotene + Crizotinib (first compound 0.8 µM), 0.739. Further, the relative viability was 0.615 in the assay with Bexarotene + Crizotinib (first compound 2.53 µM) and 0.6 with Bexarotene + Crizotinib (first compound 8 µM).
As for NCI-H647, the relative viability in the assay with Bexarotene + Tozasertib (first compound 0.08 µM) was found to be 0.351; in the assay with Bexarotene + Tozasertib (first compound 0.253 µM), 0.432; in the assay with Bexarotene + Tozasertib (first compound 0.8 µM), 0.257; in the assay with Bexarotene + Tozasertib (first compound 2.53 µM) it was 0.279; with Bexarotene + Tozasertib (first compound 8 µM), 0.324; with Bexarotene + OSI-027 (first compound 0.08 µM) it was 0.636. The relative viability is 0.627 with Bexarotene + OSI-027 (first compound 0.253 µM); 0.601 in the assay with Bexarotene + OSI-027 (first compound 0.8 µM); 0.573 with Bexarotene + OSI-027 (first compound 2.53 µM); 0.624 in the assay with Bexarotene + OSI-027 (first compound 8 µM); 1.29 with Bexarotene + Linsitinib (first compound 0.08 µM); 1.41 in the assay with Bexarotene + Linsitinib (first compound 0.253 µM). The relative viability with Bexarotene + Linsitinib (first compound 0.8 µM) was found to be 1.22; in the assay with Bexarotene + Linsitinib (first compound 2.53 µM) it was 1.26; in the assay with Bexarotene + Linsitinib (first compound 8 µM) it was 0.914; in the assay with Bexarotene + Crizotinib (first compound 0.08 µM), 1.38; in the assay with Bexarotene + Crizotinib (first compound 0.253 µM), 1.18; with Bexarotene + Crizotinib (first compound 0.8 µM), 1.19. Further, the relative viability turned out to be 1.12 with Bexarotene + Crizotinib (first compound 2.53 µM) and 0.912 in the assay with Bexarotene + Crizotinib (first compound 8 µM).
For 201T, the relative viability with Bexarotene + Tozasertib (first compound 0.08 µM) was 0.926; with Bexarotene + Tozasertib (first compound 0.253 µM) it was 0.86; with Bexarotene + Tozasertib (first compound 0.8 µM) it was 0.891; in the assay with Bexarotene + Tozasertib (first compound 2.53 µM), 0.92; with Bexarotene + Tozasertib (first compound 8 µM), 0.808; with Bexarotene + OSI-027 (first compound 0.08 µM), 0.852. Further, the relative viability with Bexarotene + OSI-027 (first compound 0.253 µM) amounted to 0.445; with Bexarotene + OSI-027 (first compound 0.8 µM) it was 0.757; with Bexarotene + OSI-027 (first compound 2.53 µM), 0.639; with Bexarotene + OSI-027 (first compound 8 µM), 0.474; with Bexarotene + Linsitinib (first compound 0.08 µM) it was 0.952; with Bexarotene + Linsitinib (first compound 0.253 µM), 1.02. Moreover, the relative viability came to 0.874 in the assay with Bexarotene + Linsitinib (first compound 0.8 µM); 0.951 in the assay with Bexarotene + Linsitinib (first compound 2.53 µM); 0.843 with Bexarotene + Linsitinib (first compound 8 µM); 0.994 with Bexarotene + Crizotinib (first compound 0.08 µM); 0.882 with Bexarotene + Crizotinib (first compound 0.253 µM); 0.974 with Bexarotene + Crizotinib (first compound 0.8 µM). In addition, the relative viability was determined as 0.958 in the assay with Bexarotene + Crizotinib (first compound 2.53 µM) and 0.982 with Bexarotene + Crizotinib (first compound 8 µM).
Regarding NCI-H1650, the relative viability in the assay with Bexarotene + Tozasertib (first compound 0.08 µM) came out at 0.483; with Bexarotene + Tozasertib (first compound 0.253 µM), 0.541; in the assay with Bexarotene + Tozasertib (first compound 0.8 µM), 0.55; with Bexarotene + Tozasertib (first compound 2.53 µM), 0.397; with Bexarotene + Tozasertib (first compound 8 µM), 0.419; with Bexarotene + OSI-027 (first compound 0.08 µM), 0.612. Moreover, the relative viability is 0.734 with Bexarotene + OSI-027 (first compound 0.253 µM); 0.598 with Bexarotene + OSI-027 (first compound 0.8 µM); 0.726 in the assay with Bexarotene + OSI-027 (first compound 2.53 µM); 0.622 with Bexarotene + OSI-027 (first compound 8 µM); 0.842 with Bexarotene + Crizotinib (first compound 0.08 µM); 0.927 with Bexarotene + Crizotinib (first compound 0.253 µM). Besides, the results for the relative viability with Bexarotene + Crizotinib (first compound 0.8 µM), with Bexarotene + Crizotinib (first compound 2.53 µM) and with Bexarotene + Crizotinib (first compound 8 µM) were 0.788, 1.04 and 0.777, respectively.
For NCI-H2170, the relative viability turned out to be 0.729 in the assay with Bexarotene + Tozasertib (first compound 0.08 µM); 0.631 with Bexarotene + Tozasertib (first compound 0.253 µM); 0.654 with Bexarotene + Tozasertib (first compound 0.8 µM); 0.63 with Bexarotene + Tozasertib (first compound 2.53 µM); 0.614 with Bexarotene + Tozasertib (first compound 8 µM); 0.699 with Bexarotene + OSI-027 (first compound 0.08 µM). Further, the relative viability was 0.757 in the assay with Bexarotene + OSI-027 (first compound 0.253 µM); 0.636 with Bexarotene + OSI-027 (first compound 0.8 µM); 0.683 with Bexarotene + OSI-027 (first compound 2.53 µM); 0.604 in the assay with Bexarotene + OSI-027 (first compound 8 µM); 1.1 in the assay with Bexarotene + Crizotinib (first compound 0.08 µM); 1.11 with Bexarotene + Crizotinib (first compound 0.253 µM). Besides, the relative viability with Bexarotene + Crizotinib (first compound 0.8 µM) is 1.15; with Bexarotene + Crizotinib (first compound 2.53 µM), 1.02; with Bexarotene + Crizotinib (first compound 8 µM) it was 1.05.
For NCI-H1563, the relative viability with Bexarotene + OSI-027 (first compound 0.08 µM) worked out at 0.842; with Bexarotene + OSI-027 (first compound 0.253 µM), 0.787; with Bexarotene + OSI-027 (first compound 0.8 µM) it was 0.813; with Bexarotene + OSI-027 (first compound 2.53 µM) it was 0.897; with Bexarotene + OSI-027 (first compound 8 µM), 0.849; with Bexarotene + Linsitinib (first compound 0.08 µM) it was 1.21. Moreover, the relative viability with Bexarotene + Linsitinib (first compound 0.253 µM) is 1.28; with Bexarotene + Linsitinib (first compound 0.8 µM) it was 1.03; with Bexarotene + Linsitinib (first compound 2.53 µM), 1.06; in the assay with Bexarotene + Linsitinib (first compound 8 µM), 1.04; with Bexarotene + Crizotinib (first compound 0.08 µM), 0.842; in the assay with Bexarotene + Crizotinib (first compound 0.253 µM), 0.843. The figures for the relative viability in the assay with Bexarotene + Crizotinib (first compound 0.8 µM), with Bexarotene + Crizotinib (first compound 2.53 µM) and in the assay with Bexarotene + Crizotinib (first compound 8 µM) were 0.916, 0.876 and 0.81, respectively.
For the cell line EBC-1, the relative viability with Bexarotene + Linsitinib (first compound 0.08 µM) stood at 0.954; with Bexarotene + Linsitinib (first compound 0.253 µM), 0.89; with Bexarotene + Linsitinib (first compound 0.8 µM) it was 0.783; with Bexarotene + Linsitinib (first compound 2.53 µM), 0.929; with Bexarotene + Linsitinib (first compound 8 µM) it was 1.06; with Bexarotene + Crizotinib (first compound 0.08 µM), 0.196. Further, the relative viability with Bexarotene + Crizotinib (first compound 0.253 µM) stood at 0.212; with Bexarotene + Crizotinib (first compound 0.8 µM), 0.237; with Bexarotene + Crizotinib (first compound 2.53 µM), 0.217; with Bexarotene + Crizotinib (first compound 8 µM) it was 0.192.
As for Calu-6, the relative viability in the assay with Bexarotene + Linsitinib (first compound 0.08 µM) is 1.02; in the assay with Bexarotene + Linsitinib (first compound 0.253 µM) it was 0.886; with Bexarotene + Linsitinib (first compound 0.8 µM), 0.729; with Bexarotene + Linsitinib (first compound 2.53 µM), 0.91; with Bexarotene + Linsitinib (first compound 8 µM), 0.954; in the assay with Bexarotene + Crizotinib (first compound 0.08 µM), 0.786. Further, the relative viability came to 0.753 with Bexarotene + Crizotinib (first compound 0.253 µM), 0.72 with Bexarotene + Crizotinib (first compound 0.8 µM), 0.823 with Bexarotene + Crizotinib (first compound 2.53 µM) and 0.94 in the assay with Bexarotene + Crizotinib (first compound 8 µM).
